In US7033595B1, “Pseudotyped retroviruses and stable cell lines for their production” (priority 1998, dated 2006):

What was measured:
Format in all cases: cell-based
[1] = tested on: Ross-River E2-E1 pseudotyped retrovirus
[2] = tested on: VSV-G pseudotyped retrovirus
wild type MMLV = tested on: wild type MMLV

SMILES | inhibition of transduction by Ross River glycoprotein-pseudotyped viruses [1] | inhibition of VSV-G pseudotyped retrovirus entry [2] | effect on wild type MMLV entry (wild type MMLV)
Cl.N [ammonium chloride] | dramatic inhibition | inhibit | 
CCN(CC)CCCC(C)Nc1ccnc2cc(Cl)ccc12 (centres unmarked) [chloroquine] | dramatic inhibition | inhibit | only partially affects
